Measurements: US20130338367A1, “PYRAZOLE DERIVATIVES AND PESTICIDES” (Nissan Chemical Industries, Ltd., priority 2011, published 2013)
Counter-ions that a name gives are not always drawn.

Assays:
[1] = test system: Nilaparvata lugens; experiment: Insecticidal Test on Nilaparvata lugens; format: in vivo; conditions: 144 h, 500 ppm solution, rice sheaths soaked, 2nd-instar nymphs, 25° C., 6 days after, read-out: mortality (%)
Protocol: 10% emulsifiable concentrates (or 10% wettable powders) of compounds of the present invention were diluted with water containing a spreader to obtain 500 ppm solutions. Rice sheaths were soaked in the solutions for about 10 seconds, dried in air and put in test tubes. In each tube, five 2nd-instar nymphs of Nilaparvata lugens were released, and the tubes were capped with sponge and placed in an incubator at 25° C. 6 Days after, dead insects were counted, and the mortality (%) (the number of dead insects÷the number of released insects×100) was calculated. The test was carried out in duplicate.

[2] = test system: Myzus persicae; experiment: Soil Irrigation Test on Myzus persicae; format: in vivo; conditions: 144 h, 100 ppm solution, 10 ml soil irrigation of cabbage seedlings, greenhouse, 6 days after release of insects
Protocol: 10% emulsifiable concentrates of compounds of the present invention were diluted with tap water to obtain 100 ppm solutions. The soil around the bases of cabbage seedlings (at the 2.5 true leaf stage) planted in plastic cups was irrigated with 10 ml of the solutions, and the cups were placed in a greenhouse. One day after the irrigation, adults of Myzus persicae were released at a ratio of 20 insects per seedling, and the seedlings were incubated in the greenhouse. 6 Days after the release of the insects, living insects were counted, and the control value was calculated from the following equation.
Control value (%)={1−(Cb×Tai)/(Cai×Tb)}×100
Cb: the number of insects in a non-treated area before treatment
Cai: the final number of living insects in a non-treated area
Tb: the number of insects in a treated area before treatment
Tai: the final number of living insects in a treated area

[3] = test system: Bemisia argentifolii; experiment: Insecticidal Test on Bemisia argentifolii; format: in vivo; conditions: 120 h, 500 ppm solution sprayed on kidney bean leaves, adults, 25° C., 5 days after, read-out: mortality
Protocol: In styrol cups having an inner diameter of 7 cm, wet filter paper was laid, and kidney bean leaves cut to 3 cm were laid on the paper. 10% emulsifiable concentrates (or 10% wettable powders) of compounds of the present invention were diluted with water containing a spreader to obtain 500 ppm solutions. 2.5 ml of the solutions were sprayed from a rotary spray tower into the styrol cups (2.5 mg/cm^2). The leaves were dried in air, and adults of Bemisia argentifolii were released in the cups. The cups were closed and placed in an incubator at 25° C. 5 Days after, dead insects were counted, and the mortality was calculated by using the same equation as in Test Example 1. The test was carried out in duplicate.

[4] = test system: Myzus persicae; experiment: Insecticidal Test on Myzus persicae; format: in vivo; conditions: foliar, 144 h, 500 ppm solution sprayed, apterous adults on leaf discs, 25° C., 6 days after, read-out: mortality
Protocol: (§1) Wet absorbent cotton was laid on glass dishes having an inner diameter of 3 cm, and covered with leaves of Canarium album cut into circles of the same diameter, and 4 apterous adults of Myzus persicae were released. After a day, 10% emulsifiable concentrates (or 10% wettable powders) of compounds of the present invention were diluted with water containing a spreader to obtain 500 ppm solutions, and the solution were sprayed from a rotary spray tower (2.5 mg/cm^2). The dishes were covered with lids and placed in an incubator at 25° C. 6 Days after, dead insects were counted, and the mortality was calculated by using the same equation as in Test Example 1. The test was carried out in duplicate.

[5] = test system: Aphis gossypii; experiment: Insecticidal Test on Aphis gossypii; format: in vivo; conditions: foliar, 144 h, 500 ppm solution sprayed, apterous adults on cucumber leaf discs, 25° C., 6 days after, read-out: mortality
Protocol: as §1, with “cucumber” for “Canarium album”, “Aphis gossypii” for “Myzus persicae”

Structure (SMILES)	mortality at 500 ppm [1]	pest or weed control at 100 ppm [2]	mortality at 500 ppm [3]	mortality at 500 ppm [4]	mortality at 500 ppm [5]	melting point
CCSC(C)C(=S)Nc1cn(-c2cccnc2)nc1Cl (stereo not shown) [1-353, N-{3-chloro-1-(pyridin-3-yl)-1H-pyrazol-4-yl}-2-(ethylthio)propanethioamide]	≥ 90%	≥ 90%				
CSCC(C)(C)C(=O)N(C)c1cn(-c2cccnc2)nc1Cl [1-134, N-{3-chloro-1-(pyridin-3-yl)-1H-pyrazol-4-yl}-N,2,2-trimethyl-3-(methylthio)propanamide]	≥ 90%	≥ 90%	≥ 90%	≥ 90%	≥ 90%	
CN(C(=O)CCS(C)(=O)=O)c1cn(-c2cccnc2)nc1Cl [1-052, N-{3-chloro-1-(pyridin-3-yl)-1H-pyrazol-4-yl}-N-methyl-3-(methylsulfonyl)propanamide]		≥ 90%				90 to 91 °C
CCN(C(=O)C(CSC)=NOC)c1cn(-c2cccnc2)nc1Cl [1-143, N-{3-chloro-1-(pyridin-3-yl)-1H-pyrazol-4-yl}-N-ethyl-2-(methoxyimino)-3-(methylthio)propanamide]		≥ 90%				
CSCC1CCN(c2cn(-c3cccnc3)nc2Cl)C1=O (stereo not shown) [1-141, 1-{3-chloro-1-(pyridin-3-yl)-1H-pyrazol-4-yl}-3-(methylthiomethyl)pyrrolidin-2-one]						83 to 84 °C
CCN(C(=O)[C@H](C)CSC)c1cn(-c2cccnc2)nc1Cl [1-048(S)-(−), (S)-(−)-N-{3-chloro-1-(pyridin-3-yl)-1H-pyrazol-4-yl}-N-ethyl-2-methyl-3-(methylthio)propanamide]	≥ 90%	≥ 90%	≥ 90%	≥ 90%	≥ 90%	
CCNc1cn(-c2cccnc2)nc1C (as salt: hydrochloride) [B-002, N-ethyl-3-methyl-1-(pyridin-3-yl)-1H-pyrazole-4-amine]						113 to 116 °C
CCSC(C)C(=O)N(CC)c1cn(-c2cccnc2)nc1Cl (stereo not shown) [1-118, N-{3-chloro-1-(pyridin-3-yl)-1H-pyrazol-4-yl}-N-ethyl-2-(ethylthio)propanamide]		≥ 90%				65 to 66 °C
O=C1CCCCN1c1cnn(-c2cccnc2)c1 [1-034, 1-{1-(pyridin-3-yl)-1H-pyrazol-4-yl}piperidin-2-one]						123 to 124 °C
Cc1nn(-c2cccnc2)cc1NC(=O)OC(C)(C)C [1-011, tert-butyl 3-methyl-1-(pyridin-3-yl)-1H-pyrazol-4-ylcarbamate]	≥ 90%	≥ 90%	≥ 90%	≥ 90%	≥ 90%	
CSCC(=O)N(C)C(C)=Nc1cn(-c2cccnc2)nc1C [3-004, N-methyl-N-[1-{3-methyl-1-(pyridin-3-yl)-1H-pyrazol-4-ylimino}ethyl]-2-(methylthio)acetamide]	≥ 90%	≥ 90%	≥ 90%			
O=C(Nc1cnn(-c2cccnc2)c1)C(Br)CCCBr (stereo not shown) [1-025, 2,5-dibromo-N-{1-(pyridin-3-yl)-1H-pyrazol-4-yl}pentanamide]						114 to 115 °C
Clc1nn(-c2cccnc2)cc1NCC1CC1 [B-014, 3-chloro-N-(cyclopropylmethyl)-1-(pyridin-3-yl)-1H-pyrazole-4-amine]						72 to 78 °C
CS(=O)(=O)Nc1cnn(-c2cccnc2)c1 [2-001]						140 to 150 °C
